Test results from patent publication US9212163B2, “Pesticidal compositions and processes related thereto” (Dow AgroSciences LLC, priority 2012, dated 2015).

System: Beet Armyworm (BAW) (Spodoptera exigua)
Assay: Bioassay on Beet Armyworm (BAW), 128-well diet tray assay
Type: in vivo
Settings: Table 3: Assay Results Part 1
Method: Certain molecules disclosed in this document were tested against BAW, CEW and CL using procedures described in the following examples. In the reporting of the results, the “BAW & CEW & CL Rating Table” was used (See Table Section).
Bioassays on BAW (Spodoptera exigua)
Bioassays on BAW were conducted using a 128-well diet tray assay. One to five second instar BAW larvae were placed in each well (3 mL) of the diet tray that had been previously filled with 1 mL of artificial diet to which 50 μg/cm^2 of the test compound (dissolved in 50 μL of 90:10 acetone-water mixture) had been applied (to each of eight wells) and then allowed to dry. Trays were covered with a clear self-adhesive cover, and held at 25° C., 14:10 light-dark for five to seven days. Percent mortality was recorded for the larvae in each well; activity in the eight wells was then averaged. The results are indicated in the tables entitled “Table 3: Assay Results Part 1” and “Table 4: Assay Results Part 2” (See Table Section).

Compound	BAW Rating
O=C(NC1CSC1)c1ccc(/C=C/C(c2cc(Cl)c(Cl)c(Cl)c2)C(F)(F)F)cc1Cl (stereo not shown) [AC29]	A (50-100)
Cc1cc(C)cc(C(/C=C/c2ccc(-n3cncn3)cc2)C(F)(F)F)c1 (stereo not shown) [DC11]	A (50-100)
Cc1cc(/C=C/C(c2cc(Cl)c(Cl)c(Cl)c2)C(F)(F)F)ccc1C(=O)NCc1cnc(Cl)s1 (stereo not shown) [AC26]	A (50-100)
N#Cc1cc(/C=C/C(c2cc(Cl)cc(Cl)c2)C(F)(F)F)ccc1-n1cnc([N+](=O)[O-])n1 (stereo not shown) [DC37]	A (50-100)
CCNC(=O)NCc1ccc(/C=C/C(c2cc(Cl)c(Cl)c(Cl)c2)C(F)(F)F)cc1Br (stereo not shown) [CC33]	A (50-100)
O=C(NCc1ccc(/C=C/C(c2cc(Cl)c(Cl)c(Cl)c2)C(F)(F)F)cc1)C1CC1 (stereo not shown) [CC5]	A (50-100)
Cc1cc(/C=C/C(c2cc(Cl)cc(Cl)c2)C(F)(F)F)ccc1C(=O)NNc1ccccc1F (stereo not shown) [AC17]	A (50-100)
O=C(NCc1ccc(/C=C/C(c2cc(Cl)c(Cl)c(Cl)c2)C(F)(F)F)cc1C(F)(F)F)c1cccnc1 (stereo not shown) [CC23]	A (50-100)
Cc1cc(/C=C/C(c2cc(Cl)cc(Cl)c2)C(F)(F)F)ccc1C(=O)Nc1ccc(Cl)nc1 (stereo not shown) [AC59]	A (50-100)
O=C(NCc1ccc(C(F)(F)F)nc1)c1ccc(/C=C/C(c2cc(Cl)c(Cl)c(Cl)c2)C(F)(F)F)cc1Br (stereo not shown) [AC75]	A (50-100)
O=C(CC(F)(F)F)NC1CCCc2cc(/C=C/C(c3cc(Cl)c(Cl)c(Cl)c3)C(F)(F)F)ccc21 (stereo not shown) [BC5]	A (50-100)
COc1c(Cl)cc(C(/C=C/c2ccc(-n3cncn3)c(C#N)c2)C(F)(F)F)cc1Cl (stereo not shown) [DC34]	A (50-100)
Cc1cc(/C=C/C(c2cc(Cl)c(F)c(Cl)c2)C(F)(F)F)ccc1C(=O)NCc1ccc(Cl)cn1 (stereo not shown) [AC53]	A (50-100)
O=C(NC1CS(=O)(=O)C1)c1ccc(/C=C/C(c2cc(Cl)c(Cl)c(Cl)c2)C(F)(F)F)cc1Br (stereo not shown) [AC33]	A (50-100)
Cc1cc(/C=C/C(c2cc(Cl)cc(Cl)c2)C(F)(F)F)ccc1C(=O)NCC(=O)NC1CS(=O)(=O)C1 (stereo not shown) [AC81]	A (50-100)
FC(F)(F)c1cc(/C=C/C(c2cc(Cl)cc(Cl)c2)C(F)(F)F)ccc1-n1cncn1 (stereo not shown) [DC51]	A (50-100)
Cc1cc(/C=C/C(c2cc(Cl)c(F)c(Cl)c2)C(F)(F)F)ccc1C(=O)NC1CCOCC1 (stereo not shown) [AC52]	A (50-100)
Cc1cc(/C=C/C(c2cc(Cl)cc(Cl)c2)C(F)(F)F)ccc1C(=O)NCc1ccccc1 (stereo not shown) [AC11]	A (50-100)
O=C(Cc1ccc(Cl)nc1)NC1CCc2cc(/C=C/C(c3cc(Cl)c(F)c(Cl)c3)C(F)(F)F)ccc21 (stereo not shown) [BC9]	A (50-100)
O=C(CC(F)(F)F)NCc1ccc(/C=C/C(c2cc(Cl)cc(Cl)c2)C(F)(F)F)cc1Cl (stereo not shown) [CC9]	A (50-100)

Compound	BAW Rating
Cc1cc(/C=C/C(c2cc(Cl)cc(Cl)c2)C(F)(F)F)ccc1C(=O)NCC(=O)N(C)CC(F)(F)F (stereo not shown) [AC51]	A (50-100)
O=C(NC1CSC1)c1ccc(/C=C/C(c2cc(Cl)c(Cl)c(Cl)c2)C(F)(F)F)cc1C(F)(F)F (stereo not shown) [AC34]	A (50-100)
Cc1cc(/C=C/C(c2cc(Cl)cc(Cl)c2)C(F)(F)F)ccc1C(=O)NCC1CCCO1 (stereo not shown) [AC118]	A (50-100)
FC(F)(F)C(/C=C/c1ccc(-n2cncn2)c(Br)c1)c1cc(Cl)cc(Cl)c1 (stereo not shown) [DC47]	A (50-100)
O=C(CC(F)(F)F)NCc1ccc(/C=C/C(c2cc(Cl)cc(Cl)c2)C(F)(F)F)cc1 (stereo not shown) [CC3]	A (50-100)
Cc1cc(/C=C/C(c2cc(Cl)c(F)c(Cl)c2)C(F)(F)F)ccc1C(=O)NCc1cc(Cl)ccn1 (stereo not shown) [AC77]	A (50-100)
Cc1cc(/C=C/C(c2cc(Cl)cc(Cl)c2)C(F)(F)F)ccc1C(=O)NCc1nc2ccccc2s1 (stereo not shown) [AC42]	A (50-100)
O=C(NCc1ccc(/C=C/C(c2cc(Cl)c(Cl)c(Cl)c2)C(F)(F)F)cc1C(F)(F)F)C1CC1 (stereo not shown) [CC22]	A (50-100)
O=C(NOc1ccc(/C=C/C(c2cc(Cl)c(Cl)c(Cl)c2)C(F)(F)F)cc1)C1CC1 (stereo not shown) [CC52, (E)-N-(4-(4,4,4-Trifluoro-3-(3,4,5-trichlorophenyl)but-1-en-1-yl)phenoxy)cyclopropanecarboxamide]	A (50-100)
O=C(CC(F)(F)F)NCc1ccc(/C=C/C(c2ccc(Cl)c(Cl)c2)C(F)(F)F)cc1Cl (stereo not shown) [CC18]	A (50-100)
CNc1cc(/C=C/C(c2cc(Cl)cc(Cl)c2)C(F)(F)F)ccc1-n1cncn1 (stereo not shown) [DC57, (E)-5-(3-(3,5-Dichlorophenyl)-4,4,4-trifluorobut-1-en-1-yl)-N-methyl-2-(1H-1,2,4-triazol-1-yl)aniline]	A (50-100)
Cc1cc(/C=C/C(c2cc(Cl)cc(Cl)c2)C(F)(F)F)ccc1C(=O)NN(C)c1ccccc1F (stereo not shown) [AC45]	A (50-100)
Cc1cc(/C=C/C(c2cc(Cl)c(Cl)c(Cl)c2)C(F)(F)F)ccc1C(=O)NCC(=O)NCC(F)(F)F (stereo not shown) [AC78]	A (50-100)
O=C(CC(F)(F)F)NCc1ccc(/C=C/C(c2cc(Cl)c(Cl)c(Cl)c2)C(F)(F)F)cc1C(F)(F)F (stereo not shown) [CC24]	A (50-100)
O=C(NCc1ccc(Cl)nc1)c1ccc(/C=C/C(c2cc(Cl)c(F)c(Cl)c2)C(F)(F)F)cc1F (stereo not shown) [AC65]	A (50-100)
Cc1cc(/C=C/C(c2ccc(Cl)c(Cl)c2)C(F)(F)F)ccc1C(=O)NCc1ccc(Cl)nc1 (stereo not shown) [AC37]	A (50-100)
O=C(NC1CS(=O)(=O)C1)c1ccc(/C=C/C(c2cc(Cl)c(F)c(Cl)c2)C(F)(F)F)cc1F (stereo not shown) [AC84]	A (50-100)
Cc1cc(/C=C/C(c2cc(Cl)c(F)c(Cl)c2)C(F)(F)F)ccc1C(=O)NCC(=O)NCC(F)(F)F (stereo not shown) [AC69]	A (50-100)
Cc1cc(/C=C/C(c2cc(Cl)cc(Cl)c2)C(F)(F)F)ccc1C(=O)NCc1nccn1C (stereo not shown) [AC50]	A (50-100)
O=C(CC(F)(F)F)NCc1ncc(/C=C/C(c2cc(Cl)c(Cl)c(Cl)c2)C(F)(F)F)cc1Cl (stereo not shown) [CC44, (E)-N-((3-Chloro-5-(4,4,4-trifluoro-3-(3,4,5-trichlorophenyl)-but-1-en-1-yl)pyridin-2-yl)methyl)-3,3,3-trifluoropropanamide]	A (50-100)

Compound	BAW Rating
N#Cc1cc(/C=C/C(c2cc(Cl)cc(C(F)(F)F)c2)C(F)(F)F)ccc1-n1cncn1 (stereo not shown) [DC33]	A (50-100)
Cc1cc(/C=C/C(c2cc(Cl)cc(Cl)c2)C(F)(F)F)ccc1C(=O)NC(C)(C)c1ccccn1 (stereo not shown) [AC16]	A (50-100)
N#Cc1cc(/C=C/C(c2cc(Cl)cc(Cl)c2)C(F)(F)F)ccc1-n1cnc(N)n1 (stereo not shown) [DC38]	A (50-100)
O=C(NC1CS(=O)(=O)C1)c1ccc(/C=C/C(c2cc(Cl)cc(Cl)c2)C(F)(F)F)cc1F (stereo not shown) [AC83, (E)-4-(3-(3,5-Dichlorophenyl)-4,4,4-trifluorobut-1-en-1-yl)-N-(1,1-dioxidothietan-3-yl)-2-fluorobenzamide]	A (50-100)
Cc1cc(/C=C/C(c2cc(Cl)cc(Cl)c2)C(F)(F)F)ccc1C(=O)NCc1nnc(C2CC2)o1 (stereo not shown) [AC89, (E)-N-((5-Cyclopropyl-1,3,4-oxadiazol-2-yl)methyl)-4-(3-(3,5-dichlorophenyl)-4,4,4-trifluorobut-1-en-1-yl)-2-methylbenzamide]	A (50-100)
CCOC(=O)c1cc(/C=C/C(c2cc(Cl)cc(Cl)c2)C(F)(F)F)ccc1-n1cncn1 (stereo not shown) [DC60]	A (50-100)
CSCCC(=O)NCc1ccc(/C=C/C(c2cc(Cl)c(Cl)c(Cl)c2)C(F)(F)F)cc1Cl (stereo not shown) [CC19]	A (50-100)
CC(=O)NCc1ccc(/C=C/C(c2cc(Cl)cc(Cl)c2)C(F)(F)F)cc1Cl (stereo not shown) [CC7, (E)-N-(2-Chloro-4-(3-(3,5-dichlorophenyl)-4,4,4-trifluorobut-1-en-1-yl)benzyl)acetamide]	A (50-100)
Cc1cc(/C=C/C(c2cc(Cl)cc(Cl)c2)C(F)(F)F)ccc1C(=S)NCc1ccc(Cl)nc1 (stereo not shown) [AC115, (E)-N-((6-Chloropyridin-3-yl)methyl)-4-(3-(3,5-dichlorophenyl)-4,4,4-trifluorobut-1-en-1-yl)-2-methylbenzothioamide]	A (50-100)
O=C(NCc1ccc(Cl)nc1)c1ccc(/C=C/C(c2cc(Cl)c(Cl)c(Cl)c2)C(F)(F)F)cc1C(F)(F)F (stereo not shown) [AC36]	A (50-100)
Cc1cc(/C=C/C(c2cc(Cl)cc(Cl)c2)C(F)(F)F)ccc1C(=O)NCc1cnccn1 (stereo not shown) [AC43]	A (50-100)
O=C(CNC(=O)c1ccc(/C=C/C(c2ccc(F)c(Cl)c2)C(F)(F)F)cc1Br)NCC(F)(F)F (stereo not shown) [AC99]	A (50-100)
O=C(NCC(=S)NCC(F)(F)F)c1ccc(/C=C/C(c2cc(Cl)c(Cl)c(Cl)c2)C(F)(F)F)cc1Br (stereo not shown) [AC92, (E)-2-Bromo-N-(2-thioxo-2-((2,2,2-trifluoroethyl)amino)ethyl)-4-(4,4,4-trifluoro-3-(3,4,5-trichlorophenyl)but-1-en-1-yl)benzamide]	A (50-100)
N#CCN1CCC(NC(=O)c2ccc(/C=C/C(c3cc(Cl)c(Cl)c(Cl)c3)C(F)(F)F)cc2Br)CC1 (stereo not shown) [AC107]	B (More than 0-Less than 50)
O=C(NCc1ccc(/C=C/C(c2cc(Cl)c(Cl)c(Cl)c2)C(F)(F)F)cc1Cl)N1CCOCC1 (stereo not shown) [CC34]	A (50-100)
O=C(NC1CCN(C(=O)CC(F)(F)F)CC1)c1ccc(/C=C/C(c2cc(Cl)c(Cl)c(Cl)c2)C(F)(F)F)cc1Br (stereo not shown) [AC104, (E)-2-Bromo-4-(4,4,4-trifluoro-3-(3,4,5-trichlorophenyl)but-1-en-1-yl)-N-(1-(3,3,3-trifluoropropanoyl)piperidin-4-yl)benzamide]	A (50-100)
FC(F)(F)C(/C=C/c1ccc(-n2cncn2)cc1)c1ccc(Cl)cc1 (stereo not shown) [DC4]	A (50-100)
Cc1cc(/C=C/C(c2cc(Cl)c(Cl)c(Cl)c2)C(F)(F)F)ccc1-n1cncn1 (stereo not shown) [DC63]	A (50-100)
